Several values for one entry are separate records, joined by “and”; a condition that tells them apart may be missing. Identical values can stand only once. Toxic doses and inconclusive results are not listed. No stated cut-off is given here; in the data, active means T/C of 150% or more; inactive means T/C below 125%.
Test system: L1210 leukemia ip in BDF1 mice, survival T/C
Experiment: NCI In Vivo Anticancer Drug Screen. Data for tumor model L1210 Leukemia (intraperitoneal) in B6D2F1 (BDF1) mice
Conditions: endpoint: mean survival time, higher = longer survival
In short: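 Ratio derived from survival: compound-dosed mice over vehicle-dosed mice, all bearing a transplantable tumor.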

[1] = dose: 100.0 mg/kg/injection, schedule: Q01DX001 (ip), vehicle: saline
[2] = dose: 200.0 mg/kg/injection, schedule: Q01DX001 (ip), vehicle: saline
[3] = dose: 400.0 mg/kg/injection, schedule: Q01DX001 (ip), vehicle: saline
[4] = dose: 100.0 mg/kg/injection, schedule: Q01DX001 (ip), vehicle: Klucel (hydroxypropylcellulose) (HPC)
[5] = dose: 100.0 mg/kg/injection, schedule: Q04DX003 (ip), vehicle: Klucel (hydroxypropylcellulose) (HPC)
[6] = dose: 200.0 mg/kg/injection, schedule: Q01DX001 (ip), vehicle: Klucel (hydroxypropylcellulose) (HPC)
[7] = dose: 400.0 mg/kg/injection, schedule: Q01DX001 (ip), vehicle: Klucel (hydroxypropylcellulose) (HPC)
[8] = dose: 400.0 mg/kg/injection, schedule: Q04DX003 (ip), vehicle: Klucel (hydroxypropylcellulose) (HPC)

Measured: T/C

C[C@]12CC[C@H]3[C@@H](CC[C@]4(O)C[C@@H](O)CC[C@]34/C=N/O)[C@@]1(O)CC[C@@H]2C1=COC(=O)C1
inactive: dose: 1.87 mg/kg/injection, schedule: Q01DX009 (ip), vehicle: carboxymethylcellulose (CMC) 93 % of control | dose: 3.75 mg/kg/injection, schedule: Q01DX009 (ip), vehicle: carboxymethylcellulose (CMC) 104 % of control | dose: 7.5 mg/kg/injection, schedule: Q01DX009 (ip), vehicle: carboxymethylcellulose (CMC) 106 % of control | dose: 30.0 mg/kg/injection, schedule: Q01DX009 (ip), vehicle: carboxymethylcellulose (CMC) 104 % of control | dose: 60.0 mg/kg/injection, schedule: Q01DX009 (ip), vehicle: carboxymethylcellulose (CMC) 93 % of control

CC/C(=N/N=C(N)N)c1ccc(F)cc1
inactive: dose: 15.0 mg/kg/injection, schedule: Q01DX Z (oral), vehicle: carboxymethylcellulose (CMC) 104 % of control | dose: 30.0 mg/kg/injection, schedule: Q01DX Z (oral), vehicle: carboxymethylcellulose (CMC) 101 % of control | dose: 60.0 mg/kg/injection, schedule: Q01DX Z (oral), vehicle: carboxymethylcellulose (CMC) 98 % of control

COC(O)C(O)C(O)C(O)CO (centres undefined) (tested in a mixture with another compound)
inactive: dose: 100.0 mg/kg/injection, schedule: Q01DX001 (ip), vehicle: saline with Tween-80 90 % of control | dose: 200.0 mg/kg/injection, schedule: Q01DX001 (ip), vehicle: saline with Tween-80 97 % of control | dose: 400.0 mg/kg/injection, schedule: Q01DX001 (ip), vehicle: saline with Tween-80 93 % of control

c1ccc(CCCC2CCCC2)cc1
inactive: dose: 75.0 mg/kg/injection, schedule: Q01DX001 (ip), vehicle: saline 94 % of control | dose: 75.0 mg/kg/injection, schedule: Q01DX009 (ip), vehicle: saline 106 % of control | dose: 150.0 mg/kg/injection, schedule: Q01DX001 (ip), vehicle: saline 96 % of control | dose: 150.0 mg/kg/injection, schedule: Q01DX009 (ip), vehicle: saline 108 % of control | dose: 300.0 mg/kg/injection, schedule: Q01DX001 (ip), vehicle: saline 97 % of control | dose: 300.0 mg/kg/injection, schedule: Q01DX009 (ip), vehicle: saline 106 % of control

Cc1ccccc1CN(C)N=O
inactive: [1] 101 % of control | [2] 94 % of control | [3] 91 % of control

O=C1C(Cl)=C(Cl)C(=O)c2cc(Cl)c(Cl)cc21
inactive: dose: 10.0 mg/kg/injection, schedule: Q01DX001 (ip), vehicle: saline 93 % of control

COC(Cl)C(Cl)(Cl)Cl (centres undefined)
inactive: dose: 50.0 mg/kg/injection, schedule: Q01DX009 (ip), vehicle: saline 93 % of control | dose: 100.0 mg/kg/injection, schedule: Q01DX001 (ip), vehicle: acetone 103 % of control | dose: 100.0 mg/kg/injection, schedule: Q01DX009 (ip), vehicle: saline 88 % of control | dose: 100.0 mg/kg/injection, schedule: Q04DX003 (ip), vehicle: saline 103 % of control | dose: 200.0 mg/kg/injection, schedule: Q01DX001 (ip), vehicle: acetone 90 % of control | dose: 200.0 mg/kg/injection, schedule: Q01DX009 (ip), vehicle: saline 91 % of control | dose: 200.0 mg/kg/injection, schedule: Q04DX003 (ip), vehicle: saline 100 % of control | dose: 400.0 mg/kg/injection, schedule: Q01DX001 (ip), vehicle: acetone 92 % of control

CCOC(=O)C(=CC(CC)(C(=O)OCC)C(=O)OCC)C(=O)OCC
inactive: [1] 101 % of control | [2] 97 % of control | [3] 95 % of control

Cc1cc(=O)[nH]c2c1ccc1[nH]c(=O)cc(C)c12
inactive: [4] 91 % of control | [5] 95 % of control | [6] 94 % of control | [7] 91 % of control | [8] 86 % of control

Cc1ccccc1OC(=O)c1ccccc1
inactive: dose: 100.0 mg/kg/injection, schedule: Q04DX003 (ip), vehicle: saline with Tween-80 107 % of control | dose: 200.0 mg/kg/injection, schedule: Q04DX003 (ip), vehicle: saline with Tween-80 104 % of control | dose: 400.0 mg/kg/injection, schedule: Q04DX003 (ip), vehicle: saline with Tween-80 104 % of control

c1cc2c3c(c1)[I+]c1cccc(c1-3)[I+]2
inactive: dose: 50.0 mg/kg/injection, schedule: Q01DX001 (ip), vehicle: saline 112 % of control | [1] 116 % of control

COc1ccc(NC(=O)Nc2cccc(SC)c2)cc1
inactive: dose: 100.0 mg/kg/injection, schedule: Q01DX009 (ip), vehicle: carboxymethylcellulose (CMC) 94 % of control and 97 % of control | dose: 100.0 mg/kg/injection, schedule: Q04DX002 (ip), vehicle: Klucel (hydroxypropylcellulose) (HPC) 93 % of control | dose: 100.0 mg/kg/injection, schedule: Q04DX002 (ip), vehicle: carboxymethylcellulose (CMC) 97 % of control and 101 % of control | dose: 100.0 mg/kg/injection, schedule: Q04DX003 (ip), vehicle: carboxymethylcellulose (CMC) 94 % of control | dose: 200.0 mg/kg/injection, schedule: Q01DX009 (ip), vehicle: carboxymethylcellulose (CMC) 92 % of control and 95 % of control | dose: 200.0 mg/kg/injection, schedule: Q04DX002 (ip), vehicle: Klucel (hydroxypropylcellulose) (HPC) 93 % of control | dose: 200.0 mg/kg/injection, schedule: Q04DX002 (ip), vehicle: carboxymethylcellulose (CMC) 100 % of control and 91 % of control | dose: 200.0 mg/kg/injection, schedule: Q04DX003 (ip), vehicle: carboxymethylcellulose (CMC) 86 % of control | dose: 400.0 mg/kg/injection, schedule: Q01DX009 (ip), vehicle: carboxymethylcellulose (CMC) 94 % of control | dose: 400.0 mg/kg/injection, schedule: Q04DX002 (ip), vehicle: Klucel (hydroxypropylcellulose) (HPC) 107 % of control | dose: 400.0 mg/kg/injection, schedule: Q04DX002 (ip), vehicle: carboxymethylcellulose (CMC) 111 % of control and 91 % of control | dose: 400.0 mg/kg/injection, schedule: Q04DX003 (ip), vehicle: carboxymethylcellulose (CMC) 93 % of control

O=C(O)CCC(=O)NCCN(CCNC(=O)CCC(=O)O)C(=O)CCC(=O)O
inactive: dose: 100.0 mg/kg/injection, schedule: Q01DX001 (ip), vehicle: other 105 % of control | dose: 100.0 mg/kg/injection, schedule: Q01DX009 (ip), vehicle: water 100 % of control | dose: 100.0 mg/kg/injection, schedule: Q04DX003 (ip), vehicle: water 105 % of control | dose: 200.0 mg/kg/injection, schedule: Q01DX001 (ip), vehicle: other 100 % of control | dose: 200.0 mg/kg/injection, schedule: Q01DX009 (ip), vehicle: water 97 % of control | dose: 200.0 mg/kg/injection, schedule: Q04DX003 (ip), vehicle: water 98 % of control | dose: 400.0 mg/kg/injection, schedule: Q01DX001 (ip), vehicle: other 98 % of control | dose: 400.0 mg/kg/injection, schedule: Q01DX009 (ip), vehicle: water 97 % of control | dose: 400.0 mg/kg/injection, schedule: Q04DX003 (ip), vehicle: water 102 % of control

C[C@]12CC[C@H]3[C@@H](CCC4=CC(=O)CC[C@@]43C(=O)F)[C@@H]1CC[C@@H]2O
inactive: dose: 100.0 mg/kg/injection, schedule: Q01DX001 (sc), vehicle: steriod suspending solution 97 % of control | dose: 200.0 mg/kg/injection, schedule: Q01DX001 (sc), vehicle: steriod suspending solution 100 % of control | dose: 400.0 mg/kg/injection, schedule: Q01DX001 (sc), vehicle: steriod suspending solution 97 % of control

COc1ccc(C(=O)CC(C#N)c2ccc(OC)c(OC)c2)cc1OC (centres undefined)
inactive: dose: 100.0 mg/kg/injection, schedule: Q01DX009 (ip), vehicle: saline with Tween-80 100 % of control | dose: 200.0 mg/kg/injection, schedule: Q01DX009 (ip), vehicle: saline with Tween-80 96 % of control | dose: 400.0 mg/kg/injection, schedule: Q01DX009 (ip), vehicle: saline with Tween-80 100 % of control

Oc1ccc(Br)cc1/C=N/N1CCN(/N=C/c2cc(Br)ccc2O)CC1
inactive: [1] 96 % of control | [2] 92 % of control | [3] 90 % of control

CN(C(=O)OCc1ccccc1)c1ccc(C(=O)NC(CC(=O)O)CC(=O)O)cc1
inactive: [1] 88 % of control | [2] 96 % of control | [3] 90 % of control

CC1(C)N=C(N)N=C(N)N1c1ccc(OCC(=O)Nc2ccccc2)c(Cl)c1
inactive: dose: 100.0 mg/kg/injection, schedule: Q01DX009 (ip), vehicle: Klucel (hydroxypropylcellulose) (HPC) 102 % of control | [5] 97 % of control | dose: 200.0 mg/kg/injection, schedule: Q01DX009 (ip), vehicle: Klucel (hydroxypropylcellulose) (HPC) 94 % of control | dose: 200.0 mg/kg/injection, schedule: Q04DX003 (ip), vehicle: Klucel (hydroxypropylcellulose) (HPC) 90 % of control | dose: 400.0 mg/kg/injection, schedule: Q01DX009 (ip), vehicle: Klucel (hydroxypropylcellulose) (HPC) 93 % of control | [8] 92 % of control

NC(=O)CNc1ccccc1C(=O)O
inactive: [4] 93 % of control | [6] 96 % of control | [7] 93 % of control

— PubChem BioAssay AID248 (DTP/NCI, 2004)
